These molecules were tested against human full-length MKNK1 (Homo sapiens (Human), UniProt Q9BUB5, T344D) (assay: MKNK1 kinase high ATP assay (TR-FRET)). Details: 2 mM ATP, 15 min preincubation with enzyme, GST-MKNK1 (T344D).
Format: biochemical
Experimental: MKNK1 Kinase High ATP Assay
MKNK1-inhibitory activity at high ATP of compounds of the present invention after their preincubation with MKNK1 was quantified employing the TR-FRET-based MKNK1 high ATP assay as described in the following paragraphs.
A recombinant fusion protein of Glutathione-S-Transferase (GST, N-terminally) and human full-length MKNK1 (amino acids 1-424 and T344D of accession number BAA 19885.1), expressed in insect cells using baculovirus expression system and purified via glutathione sepharose affinity chromatography, was purchased from Carna Biosciences (product no 02-145) and used as enzyme. As substrate for the kinase reaction the biotinylated peptide biotin-Ahx-IKKRKLTRRKSLKG (SEQ ID NO: 1) (C-terminus in amide form) was used, which can be purchased e.g. from the company Biosyntan (Berlin-Buch, Germany)
For the assay 50 nL of a 100 fold concentrated solution of the test compound in DMSO was pipetted into a black low volume 384 well microtiter plate (Greiner Bio-One, Frickenhausen, Germany), 2 μL of a solution of MKNK1 in aqueous assay buffer [50 mM HEPES pH 7.5, 5 mM MgCl2, 1.0 mM dithiothreitol, 0.005% (v/v) Nonidet-P40 (Sigma)] was added and the mixture was incubated for […] at 22° C. to allow pre-binding of the test compounds to the enzyme before the start of the kinase reaction. Then the kinase reaction was started by the addition of 3 μL of a solution of adenosine-tri-phosphate (ATP, 3.3 mM=>final conc. in the 5 μL assay volume is 2 mM) and substrate (0.1 μM=>final conc. in the 5 μL assay volume is 0.06 μM) in assay buffer and the resulting mixture was incubated for a reaction time of 30 min at 22° C. The concentration of MKNK1 was adjusted depending of the activity of the enzyme lot and was chosen appropriate to have the assay in the linear range, typical concentrations were in the range of 0.003 μg/mL. The reaction was stopped by the addition of 5 μL of a solution of TR-FRET detection reagents (5 nM streptavidine-XL665 [Cisbio Bioassays, Codolet, France] and 1 nM anti-ribosomal protein S6 (pSer236)-antibody from Invitrogen [#44921G] and 1 nM LANCE EU-W1024 labeled ProteinG [Perkin-Elmer, product no. AD0071]) in an aqueous EDTA-solution (100 mM EDTA, 0.1% (w/v) bovine serum albumin in 50 mM HEPES pH 7.5).
The resulting mixture was incubated for 1 h at 22° C. to allow the formation of complex between the phosphorylated biotinylated peptide and the detection reagents. Subsequently the amount of phosphorylated substrate was evaluated by measurement of the resonance energy transfer from the Eu-chelate to the streptavidine-XL. Therefore, the fluorescence emissions at 620 nm and 665 nm after excitation at 350 nm were measured in a TR-FRET reader, e.g. a Rubystar (BMG Labtechnologies, Offenburg, Germany) or a Viewlux (Perkin-Elmer). The ratio of the emissions at 665 nm and at […] was taken as the measure for the amount of phosphorylated substrate. The data were normalised (enzyme reaction without inhibitor=0% inhibition, all other assay components but no enzyme=100% inhibition).

human full-length MKNK1, sequence (Q9BUB5 other isoform, or with tags, fused parts or gaps T344D): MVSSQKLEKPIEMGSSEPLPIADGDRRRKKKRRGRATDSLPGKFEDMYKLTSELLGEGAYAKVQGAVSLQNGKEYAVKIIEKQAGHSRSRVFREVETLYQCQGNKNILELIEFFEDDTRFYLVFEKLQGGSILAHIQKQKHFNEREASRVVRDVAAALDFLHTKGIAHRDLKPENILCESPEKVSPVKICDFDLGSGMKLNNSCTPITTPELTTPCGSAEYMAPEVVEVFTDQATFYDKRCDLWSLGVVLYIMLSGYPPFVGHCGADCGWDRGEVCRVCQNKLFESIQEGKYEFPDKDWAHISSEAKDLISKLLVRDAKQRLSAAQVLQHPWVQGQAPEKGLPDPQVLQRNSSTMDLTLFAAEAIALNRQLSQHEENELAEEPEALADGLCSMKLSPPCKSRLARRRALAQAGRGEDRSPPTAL

In order of rising IC50:
1. Cc1cc(Nc2ncnc3[nH]ccc23)c(=O)n2c1C(=O)NC21CCCCC1 [Example 6, 8′-Methyl-6′-(7H-pyrrolo[2,3-d]pyrimidin-4-ylamino)-2′H-spiro[cyclohexane-1,3′-imidazo[1,5-a]pyridine]-1′,5′-dione]  0.3 nM
2. Cc1cc(Nc2ncnc3[nH]ncc23)c(=O)n2c1C(=O)NC21CCCCC1 [Example 7, 8′-Methyl-6′-(1H-pyrazolo[3,4-d]pyrimidin-4-ylamino)-2′H-spiro[cyclohexane-1,3′-imidazo[1,5-a]pyridine]-1′,5′-dione]  2 nM
3. Cc1cc(Nc2ncnc(NC(=O)C3CC3)n2)c(=O)n2c1C(=O)NC21CCCCC1 [Example 1, N-{4-[(8′-Methyl-1′,5′-dioxo-1′,5′-dihydro-2′H-spiro[cyclohexane-1,3′-imidazo[1,5-a]pyridin]-6′-yl)amino]-1,3,5-triazin-2-yl}cyclopropanecarboxamide]  2.5 nM
4. Cc1cc(Nc2ncnc3sc(C(=O)N4CCC(N(C)C)CC4)cc23)c(=O)n2c1C(=O)NC21CCCCC1 [Example 14, 6′-[(6-{[4-(Dimethylamino)piperidin-1-yl]carbonyl}thieno[2,3-d]pyrimidin-4-yl)amino]-8′-methyl-2′H-spiro[cyclohexane-1,3′-imidazo[1,5-a]pyridine]-1′,5′-dione]  4.1 nM
5. Cc1cc(Nc2ncnc3sc(C(=O)N(C)CCN(C)C)cc23)c(=O)n2c1C(=O)NC21CCCCC1 [Example 13, N-[2-(Dimethylamino)ethyl]-N-methyl-4-[(8′-methyl-1′,5′-dioxo-1′,5′-dihydro-2′H-spiro[cyclohexane-1,3′-imidazo[1,5-a]pyridin]-6′-yl)amino]thieno[2,3-d]pyrimidine-6-carboxamide]  5.2 nM
6. Cc1cc(Nc2ncnc(N)n2)c(=O)n2c1C(=O)NC21CCCCC1 [Example 2, 6′-[(4-Amino-1,3,5-triazin-2-yl)amino]-8′-methyl-2′H-spiro[cyclohexane-1,3′-imidazo[1,5-a]pyridine]-1′,5′-dione]  6.4 nM
7. Cc1cc(Nc2ncnc3sccc23)c(=O)n2c1C(=O)NC21CCCCC1 [Example 5, 8′-Methyl-6′-(thieno[2,3-d]pyrimidin-4-ylamino)-2′H-spiro[cyclohexane-1,3′-imidazo[1,5-a]pyridine]-1′,5′-dione]  6.4 nM
8. Cc1cc(Nc2ccnc3[nH]ccc23)c(=O)n2c1C(=O)NC21CCCCC1 [Example 22, 8′-Methyl-6′-(1H-pyrrolo[2,3-b]pyridin-4-ylamino)-2′H-spiro[cyclohexane-1,3′-imidazo[1,5-a]pyridine]-1′,5′-dione]  12.3 nM
9. Cc1cc(Nc2ncnc3sc(C(=O)N(C)C)cc23)c(=O)n2c1C(=O)NC21CCCCC1 [Example 10, N,N-Dimethyl-4-[(8′-methyl-1′,5′-dioxo-1′,5′-dihydro-2′H-spiro[cyclohexane-1,3′-imidazo[1,5-a]pyridin]-6′-yl)amino]thieno[2,3-d]pyrimidine-6-carboxamide]  17.1 nM
10. CCCNC(=O)Nc1ncnc(Nc2cc(C)c3n(c2=O)C2(CCCCC2)NC3=O)n1 [Example 3, 1-{4-[(8′-Methyl-1′,5′-dioxo-1′,5′-dihydro-2′H-spiro[cyclohexane-1,3′-imidazo[1,5-a]pyridin]-6′-yl)amino]-1,3,5-triazin-2-yl}-3-propylurea]  18.8 nM
11. Cc1cc(Nc2ncnc3sc(C(=O)O)c(C)c23)c(=O)n2c1C(=O)NC21CCCCC1 [Example 15, 5-Methyl-4-[(8′-methyl-1′,5′-dioxo-1′,5′-dihydro-2′H-spiro[cyclohexane-1,3′-imidazo[1,5-a]pyridin]-6′-yl)amino]thieno[2,3-d]pyrimidine-6-carboxylic acid]  21.3 nM
12. Cc1cc(Nc2ncnc3sc(C(=O)N4CCN(C)CC4)cc23)c(=O)n2c1C(=O)NC21CCCCC1 [Example 12, 8′-Methyl-6′-({6-[(4-methylpiperazin-1-yl)carbonyl]thieno[2,3-d]pyrimidin-4-yl}amino)-2′H-spiro[cyclohexane-1,3′-imidazo[1,5-a]pyridine]-1′,5′-dione]  27.2 nM
13. Cc1cc(Nc2ncnc3ccccc23)c(=O)n2c1C(=O)NC21CCCCC1 [Example 8, 8′-Methyl-6′-(quinazolin-4-ylamino)-2′H-spiro[cyclohexane-1,3′-imidazo[1,5-a]pyridine]-1′,5′-dione]  28.3 nM
14. Cc1cc(Nc2ncnc3sc(C(=O)N4CCN(C)CC4)c(C)c23)c(=O)n2c1C(=O)NC21CCCCC1 [Example 19, 8′-methyl-6′-({5-methyl-6-[(4-methylpiperazin-1-yl)carbonyl]thieno[2,3-d]pyrimidin-4-yl}amino)-2′H-spiro[cyclohexane-1,3′-imidazo[1,5-a]pyridine]-1′,5′-dione]  34.2 nM
15. Cc1cc(Nc2ncnc3sc(C(=O)N4CCC(N(C)C)CC4)c(C)c23)c(=O)n2c1C(=O)NC21CCCCC1 [Example 20, 6′-[(6-{[4-(Dimethylamino)piperidin-1-yl]carbonyl}-5-methylthieno[2,3-d]pyrimidin-4-yl)amino]-8′-methyl-2′H-spiro[cyclohexane-1,3′-imidazo[1,5-a]pyridine]-1′,5′-dione]  35.2 nM
16. COCCN(C)C(=O)c1cc2c(Nc3cc(C)c4n(c3=O)C3(CCCCC3)NC4=O)ncnc2s1 [Example 11, N-(2-Methoxyethy)-N-methyl-4-[(8′-methyl-1′,5′-dioxo-1′,5′-dihydro-2′H-spiro[cyclohexane-1,3′-imidazo[1,5-a]pyridin]-6′-yl)amino]thieno[2,3-d]pyrimidine-6-carboxamide]  36.9 nM
17. Cc1cc(Nc2ncnc3sc(C(=O)N(C)CCN(C)C)c(C)c23)c(=O)n2c1C(=O)NC21CCCCC1 [Example 17, N-[2-(dimethylamino)ethyl]-N,5-dimethyl-4-[(8′-methyl-1′,5′-dioxo-1′,5′-dihydro-2′H-spiro[cyclohexane-1,3′-imidazo[1,5-a]pyridin]-6′-yl)amino]thieno[2,3-d]pyrimidine-6-carboxamide]  40.3 nM
18. Cc1cc(Nc2ncnc3sc(C(=O)N(C)C)c(C)c23)c(=O)n2c1C(=O)NC21CCCCC1 [Example 16, N,N,5-trimethyl-4-[(8′-methyl-1′,5′-dioxo-1′,5′-dihydro-2′H-spiro[cyclohexane-1,3′-imidazo[1,5-a]pyridin]-6′-yl)amino]thieno[2,3-d]pyrimidine-6-carboxamide]  66.7 nM
19. Cc1cc(Nc2ncnc3sc(C(=O)O)cc23)c(=O)n2c1C(=O)NC21CCCCC1 [Example 9, 4-[(8′-Methyl-1′,5′-dioxo-1′,5′-dihydro-2′H-spiro[cyclohexane-1,3′-imidazo[1,5-a]pyridin]-6′-yl)amino]thieno[2,3-d]pyrimidine-6-carboxylic acid]  82.6 nM
20. COCCN(C)C(=O)c1sc2ncnc(Nc3cc(C)c4n(c3=O)C3(CCCCC3)NC4=O)c2c1C [Example 18, N-(2-methoxyethyl)-N,5-dimethyl-4-[(8′-methyl-1′,5′-dioxo-1′,5′-dihydro-2′H-spiro[cyclohexane-1,3′-imidazo[1,5-a]pyridin]-6′-yl)amino]thieno[2,3-d]pyrimidine-6-carboxamide]  105 nM
21. Cc1cc(Nc2ccnc3ccccc23)c(=O)n2c1C(=O)NC21CCCCC1 [Example 4, 8′-Methyl-6′-(quinolin-4-ylamino)-2′H-spiro[cyclohexane-1,3′-imidazo[1,5-a]pyridine]-1′,5′-dione]  306 nM
22. Cc1cc(Nc2ccnc(N)n2)c(=O)n2c1C(=O)NC21CCCCC1 [Example 21, 6′-[(2-Aminopyrimidin-4-yl)amino]-8′-methyl-2′H-spiro[cyclohexane-1,3′-imidazo[1,5-a]pyridine]-1′,5′-dione]  339 nM
23. Cc1cc(Nc2ncnc3c2ncn3CC(C)O)c(=O)n2c1C(=O)NC21CCCCC1 (racemic) [Example 39, (RS)-6′-{[9-(2-Hydroxypropyl)-9H-purin-6-yl]amino}-8′-methyl-2′H-spiro[cyclohexane-1,3′-imidazo[1,5-a]pyridine]-1′,5′-dione]  744 nM

Reference: patent publication US11311520B2, “Substituted dihydroimidazopyridinediones as MKNK1 and MKNK2 inhibitors” (Bayer Pharma Aktiengesellschaft, priority 2017, dated 2022)
